Source: the supplement of paper PMC7661543
± gives the standard deviation of the averaged measurements.

These molecules were tested on MDA-MB-231 (assay: relative cell number vs DMSO control (72 h) (% of DMSO); higher = less growth inhibition (more cells)). Details: sgRNA knockout: sgNT, 100 nM.
Description: (§1)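 QMAP-Seq: a pool of 5 breast cancer cell lines (ZR-75-1, SKBR3, HCC-38, MDA-MB-231, BT-20), each carrying 12 doxycycline-inducible Cas9 sgRNA perturbations (11 knockouts plus non-targeting sgNT), was treated with compounds for 72 h at four 10-fold doses (10 nM-10 uM or 1 nM-1 uM range). Barcodes were amplified and sequenced, and cell number was interpolated from 293T spike-in standard curves. The result is expressed as % of the median of DMSO wells. Two biological replicates.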

Compound	relative cell number
COc1nc(N)nc2c1ncn2[C@@H]1O[C@H](CO)[C@@H](O)[C@@H]1O [Nelarabine]	95.5 ± 4.6
COc1cc(-n2c(=S)[nH]c3ccccc3c2=O)c(Cl)cc1Cl [Mdivi1]	84.9 ± 27
CCOC(=O)c1ccc(N2NC(=O)C(=Cc3ccc([N+](=O)[O-])o3)C2=O)cc1 [PYR41]	106 ± 11

Same assay, conditions: sgRNA knockout: sgNT, 1000 nM

Compound	relative cell number
CC(C)(C#N)c1cc(Cn2cncn2)cc(C(C)(C)C#N)c1 [Anastrozole]	115 ± 22
COC(=O)[C@]12CCC(C)(C)C[C@H]1[C@H]1C(=O)C=C3[C@@]4(C)C=C(C#N)C(=O)C(C)(C)[C@@H]4CC[C@@]3(C)[C@]1(C)CC2 [BardoxoloneMethyl]	16.4 ± 11
Cc1sc2c(c1C)C(c1ccc(Cl)cc1)=N[C@@H](CC(=O)OC(C)(C)C)c1nnc(C)n1-2 [(+)-JQ1]	105.4 ± 0.35
CCOC(=O)CCNc1cc(N2CCc3ccccc3CC2)nc(-c2ccccn2)n1 [GSKJ4]	96.8 ± 44
O=C1NC(=O)/C(=C/c2ccc3nccc(-c4ccncc4)c3c2)S1	96 ± 18
N#Cc1ccc(C(c2ccc(C#N)cc2)n2cncn2)cc1 [Letrozole]	106 ± 11
CC(C)n1c(/C=C/C(O)CC(O)CC(=O)O)c(-c2ccc(F)cc2)c2ccccc21 (stereo not given) [Fluvastatin]	30.8 ± 7.9
Cn1nnc2c(C(N)=O)ncn2c1=O [Temozolomide]	89 ± 25
CN(C)C(=O)c1ccc(S(=O)(=O)c2ccc(NC(=O)[C@@](C)(O)C(F)(F)F)c(Cl)c2)cc1 [AZD7545]	104 ± 39
CC(C)(C#N)c1ccc(N2C(=O)OCc3cnc4ccc(-c5cnc6ccccc6c5)cc4c32)cc1	82.3 ± 23
CC(C)C[C@@H](C=O)NC(=O)[C@H](CC(C)C)NC(=O)[C@H](CC(C)C)NC(=O)OCc1ccccc1 [MG132]	7.19 ± 1.8
C[C@@H](Oc1cc(-c2cnn(C3CCNCC3)c2)cnc1N)c1c(Cl)ccc(F)c1Cl [Crizotinib]	54 ± 14
CN1CCN(c2ccc(C(=O)Nc3n[nH]c4ccc(Cc5cc(F)cc(F)c5)cc34)c(NC3CCOCC3)c2)CC1 [Entrectinib]	105 ± 6.8
CC(C)(C)c1cnc(CSc2cnc(NC(=O)C3CCNCC3)s2)o1 [SNS032]	10 ± 2.3
Nc1ccn([C@@H]2O[C@H](CO)[C@@H](O)C2(F)F)c(=O)n1 [Gemcitabine]	15.6 ± 1.6
CCCS(=O)(=O)Nc1ccc(F)c(C(=O)c2c[nH]c3ncc(Cl)cc23)c1F [PLX4720]	70.5 ± 9.8
CC[C@H](Nc1ncnc2[nH]cnc12)c1nc2cccc(F)c2c(=O)n1-c1ccccc1 [CAL101]	118 ± 38
COc1nc(N)nc2c1ncn2[C@@H]1O[C@H](CO)[C@@H](O)[C@@H]1O [Nelarabine]	104 ± 23
COc1cc(-n2c(=S)[nH]c3ccccc3c2=O)c(Cl)cc1Cl [Mdivi1]	94.7 ± 11
CCOC(=O)c1ccc(N2NC(=O)C(=Cc3ccc([N+](=O)[O-])o3)C2=O)cc1 [PYR41]	87.6 ± 62

Same assay, conditions: sgRNA knockout: sgNT, 10000 nM

Compound	relative cell number
COC(=O)[C@]12CCC(C)(C)C[C@H]1[C@H]1C(=O)C=C3[C@@]4(C)C=C(C#N)C(=O)C(C)(C)[C@@H]4CC[C@@]3(C)[C@]1(C)CC2 [BardoxoloneMethyl]	5.3 ± 1.9
Cc1sc2c(c1C)C(c1ccc(Cl)cc1)=N[C@@H](CC(=O)OC(C)(C)C)c1nnc(C)n1-2 [(+)-JQ1]	50.7 ± 18
CCOC(=O)CCNc1cc(N2CCc3ccccc3CC2)nc(-c2ccccn2)n1 [GSKJ4]	34 ± 7.1
O=C1NC(=O)/C(=C/c2ccc3nccc(-c4ccncc4)c3c2)S1	54.1 ± 2.6
CC(C)n1c(/C=C/C(O)CC(O)CC(=O)O)c(-c2ccc(F)cc2)c2ccccc21 (stereo not given) [Fluvastatin]	10.6 ± 3.6
Cn1nnc2c(C(N)=O)ncn2c1=O [Temozolomide]	101.6 ± 0.8
CN(C)C(=O)c1ccc(S(=O)(=O)c2ccc(NC(=O)[C@@](C)(O)C(F)(F)F)c(Cl)c2)cc1 [AZD7545]	89.5 ± 47
CC(C)(C#N)c1ccc(N2C(=O)OCc3cnc4ccc(-c5cnc6ccccc6c5)cc4c32)cc1	49.7 ± 0.79
CC(C)C[C@@H](C=O)NC(=O)[C@H](CC(C)C)NC(=O)[C@H](CC(C)C)NC(=O)OCc1ccccc1 [MG132]	7.81 ± 2.5
C[C@@H](Oc1cc(-c2cnn(C3CCNCC3)c2)cnc1N)c1c(Cl)ccc(F)c1Cl [Crizotinib]	8.63 ± 0.23
CC(C)(C)c1cnc(CSc2cnc(NC(=O)C3CCNCC3)s2)o1 [SNS032]	12 ± 1.4
Nc1ccn([C@@H]2O[C@H](CO)[C@@H](O)C2(F)F)c(=O)n1 [Gemcitabine]	14 ± 3.5
CCCS(=O)(=O)Nc1ccc(F)c(C(=O)c2c[nH]c3ncc(Cl)cc23)c1F [PLX4720]	98 ± 3.6
CC[C@H](Nc1ncnc2[nH]cnc12)c1nc2cccc(F)c2c(=O)n1-c1ccccc1 [CAL101]	110 ± 9.4
COc1nc(N)nc2c1ncn2[C@@H]1O[C@H](CO)[C@@H](O)[C@@H]1O [Nelarabine]	72 ± 26
COc1cc(-n2c(=S)[nH]c3ccccc3c2=O)c(Cl)cc1Cl [Mdivi1]	50.1 ± 5.6
CCOC(=O)c1ccc(N2NC(=O)C(=Cc3ccc([N+](=O)[O-])o3)C2=O)cc1 [PYR41]	111 ± 6.8

These molecules were tested on BT-20 in the same assay as above. Details: sgRNA knockout: sgNT, 1 nM.
Description: as §1

Compound	relative cell number
CC(C)(C#N)c1cc(Cn2cncn2)cc(C(C)(C)C#N)c1 [Anastrozole]	112 ± 1.8
N#Cc1ccc(C(c2ccc(C#N)cc2)n2cncn2)cc1 [Letrozole]	83 ± 35
CN1CCN(c2ccc(C(=O)Nc3n[nH]c4ccc(Cc5cc(F)cc(F)c5)cc34)c(NC3CCOCC3)c2)CC1 [Entrectinib]	102 ± 28

Same assay, conditions: sgRNA knockout: sgNT, 10 nM

Compound	relative cell number
CC(C)(C#N)c1cc(Cn2cncn2)cc(C(C)(C)C#N)c1 [Anastrozole]	103 ± 50
COC(=O)[C@]12CCC(C)(C)C[C@H]1[C@H]1C(=O)C=C3[C@@]4(C)C=C(C#N)C(=O)C(C)(C)[C@@H]4CC[C@@]3(C)[C@]1(C)CC2 [BardoxoloneMethyl]	73.5 ± 19
Cc1sc2c(c1C)C(c1ccc(Cl)cc1)=N[C@@H](CC(=O)OC(C)(C)C)c1nnc(C)n1-2 [(+)-JQ1]	99.3 ± 17
CCOC(=O)CCNc1cc(N2CCc3ccccc3CC2)nc(-c2ccccn2)n1 [GSKJ4]	86.2 ± 8
O=C1NC(=O)/C(=C/c2ccc3nccc(-c4ccncc4)c3c2)S1	92.4 ± 28
N#Cc1ccc(C(c2ccc(C#N)cc2)n2cncn2)cc1 [Letrozole]	89.6 ± 27
CC(C)n1c(/C=C/C(O)CC(O)CC(=O)O)c(-c2ccc(F)cc2)c2ccccc21 (stereo not given) [Fluvastatin]	67.8 ± 3.3
Cn1nnc2c(C(N)=O)ncn2c1=O [Temozolomide]	106 ± 24
CN(C)C(=O)c1ccc(S(=O)(=O)c2ccc(NC(=O)[C@@](C)(O)C(F)(F)F)c(Cl)c2)cc1 [AZD7545]	91.2 ± 24
CC(C)(C#N)c1ccc(N2C(=O)OCc3cnc4ccc(-c5cnc6ccccc6c5)cc4c32)cc1	98.1 ± 10
CC(C)C[C@@H](C=O)NC(=O)[C@H](CC(C)C)NC(=O)[C@H](CC(C)C)NC(=O)OCc1ccccc1 [MG132]	102 ± 21
C[C@@H](Oc1cc(-c2cnn(C3CCNCC3)c2)cnc1N)c1c(Cl)ccc(F)c1Cl [Crizotinib]	83.9 ± 22
CN1CCN(c2ccc(C(=O)Nc3n[nH]c4ccc(Cc5cc(F)cc(F)c5)cc34)c(NC3CCOCC3)c2)CC1 [Entrectinib]	97.9 ± 13
CC(C)(C)c1cnc(CSc2cnc(NC(=O)C3CCNCC3)s2)o1 [SNS032]	116 ± 11
Nc1ccn([C@@H]2O[C@H](CO)[C@@H](O)C2(F)F)c(=O)n1 [Gemcitabine]	68 ± 3.1
CCCS(=O)(=O)Nc1ccc(F)c(C(=O)c2c[nH]c3ncc(Cl)cc23)c1F [PLX4720]	104 ± 12
CC[C@H](Nc1ncnc2[nH]cnc12)c1nc2cccc(F)c2c(=O)n1-c1ccccc1 [CAL101]	96.9 ± 17
COc1nc(N)nc2c1ncn2[C@@H]1O[C@H](CO)[C@@H](O)[C@@H]1O [Nelarabine]	90.5 ± 4.3
COc1cc(-n2c(=S)[nH]c3ccccc3c2=O)c(Cl)cc1Cl [Mdivi1]	76.5 ± 8.6
CCOC(=O)c1ccc(N2NC(=O)C(=Cc3ccc([N+](=O)[O-])o3)C2=O)cc1 [PYR41]	93.7 ± 24

Same assay, conditions: sgRNA knockout: sgNT, 100 nM

Compound	relative cell number
CC(C)(C#N)c1cc(Cn2cncn2)cc(C(C)(C)C#N)c1 [Anastrozole]	116 ± 12
COC(=O)[C@]12CCC(C)(C)C[C@H]1[C@H]1C(=O)C=C3[C@@]4(C)C=C(C#N)C(=O)C(C)(C)[C@@H]4CC[C@@]3(C)[C@]1(C)CC2 [BardoxoloneMethyl]	66.2 ± 6.3
Cc1sc2c(c1C)C(c1ccc(Cl)cc1)=N[C@@H](CC(=O)OC(C)(C)C)c1nnc(C)n1-2 [(+)-JQ1]	108 ± 1.9
CCOC(=O)CCNc1cc(N2CCc3ccccc3CC2)nc(-c2ccccn2)n1 [GSKJ4]	105 ± 1.5
O=C1NC(=O)/C(=C/c2ccc3nccc(-c4ccncc4)c3c2)S1	81.1 ± 9.8
N#Cc1ccc(C(c2ccc(C#N)cc2)n2cncn2)cc1 [Letrozole]	95.8 ± 6.8
CC(C)n1c(/C=C/C(O)CC(O)CC(=O)O)c(-c2ccc(F)cc2)c2ccccc21 (stereo not given) [Fluvastatin]	95 ± 7
Cn1nnc2c(C(N)=O)ncn2c1=O [Temozolomide]	111 ± 30
CN(C)C(=O)c1ccc(S(=O)(=O)c2ccc(NC(=O)[C@@](C)(O)C(F)(F)F)c(Cl)c2)cc1 [AZD7545]	103 ± 25
CC(C)(C#N)c1ccc(N2C(=O)OCc3cnc4ccc(-c5cnc6ccccc6c5)cc4c32)cc1	102 ± 7
CC(C)C[C@@H](C=O)NC(=O)[C@H](CC(C)C)NC(=O)[C@H](CC(C)C)NC(=O)OCc1ccccc1 [MG132]	113 ± 32
C[C@@H](Oc1cc(-c2cnn(C3CCNCC3)c2)cnc1N)c1c(Cl)ccc(F)c1Cl [Crizotinib]	100.3 ± 0.25
CN1CCN(c2ccc(C(=O)Nc3n[nH]c4ccc(Cc5cc(F)cc(F)c5)cc34)c(NC3CCOCC3)c2)CC1 [Entrectinib]	91.6 ± 1.3
CC(C)(C)c1cnc(CSc2cnc(NC(=O)C3CCNCC3)s2)o1 [SNS032]	79.3 ± 15
Nc1ccn([C@@H]2O[C@H](CO)[C@@H](O)C2(F)F)c(=O)n1 [Gemcitabine]	34 ± 5.5
CCCS(=O)(=O)Nc1ccc(F)c(C(=O)c2c[nH]c3ncc(Cl)cc23)c1F [PLX4720]	75.4 ± 11
CC[C@H](Nc1ncnc2[nH]cnc12)c1nc2cccc(F)c2c(=O)n1-c1ccccc1 [CAL101]	97.88 ± 0.52
COc1nc(N)nc2c1ncn2[C@@H]1O[C@H](CO)[C@@H](O)[C@@H]1O [Nelarabine]	85.5 ± 1.7
COc1cc(-n2c(=S)[nH]c3ccccc3c2=O)c(Cl)cc1Cl [Mdivi1]	98.8 ± 5.6
CCOC(=O)c1ccc(N2NC(=O)C(=Cc3ccc([N+](=O)[O-])o3)C2=O)cc1 [PYR41]	101 ± 13

Same assay, conditions: sgRNA knockout: sgNT, 1000 nM

Compound	relative cell number
CC(C)(C#N)c1cc(Cn2cncn2)cc(C(C)(C)C#N)c1 [Anastrozole]	114 ± 15
COC(=O)[C@]12CCC(C)(C)C[C@H]1[C@H]1C(=O)C=C3[C@@]4(C)C=C(C#N)C(=O)C(C)(C)[C@@H]4CC[C@@]3(C)[C@]1(C)CC2 [BardoxoloneMethyl]	16.2 ± 4
Cc1sc2c(c1C)C(c1ccc(Cl)cc1)=N[C@@H](CC(=O)OC(C)(C)C)c1nnc(C)n1-2 [(+)-JQ1]	108 ± 4.7
CCOC(=O)CCNc1cc(N2CCc3ccccc3CC2)nc(-c2ccccn2)n1 [GSKJ4]	122 ± 12
O=C1NC(=O)/C(=C/c2ccc3nccc(-c4ccncc4)c3c2)S1	62.2 ± 16
N#Cc1ccc(C(c2ccc(C#N)cc2)n2cncn2)cc1 [Letrozole]	104 ± 16
CC(C)n1c(/C=C/C(O)CC(O)CC(=O)O)c(-c2ccc(F)cc2)c2ccccc21 (stereo not given) [Fluvastatin]	97.3 ± 4.6
Cn1nnc2c(C(N)=O)ncn2c1=O [Temozolomide]	111 ± 14
CN(C)C(=O)c1ccc(S(=O)(=O)c2ccc(NC(=O)[C@@](C)(O)C(F)(F)F)c(Cl)c2)cc1 [AZD7545]	102 ± 22
CC(C)(C#N)c1ccc(N2C(=O)OCc3cnc4ccc(-c5cnc6ccccc6c5)cc4c32)cc1	81.3 ± 1.9
CC(C)C[C@@H](C=O)NC(=O)[C@H](CC(C)C)NC(=O)[C@H](CC(C)C)NC(=O)OCc1ccccc1 [MG132]	35.4 ± 8.1
C[C@@H](Oc1cc(-c2cnn(C3CCNCC3)c2)cnc1N)c1c(Cl)ccc(F)c1Cl [Crizotinib]	75.5 ± 12
CN1CCN(c2ccc(C(=O)Nc3n[nH]c4ccc(Cc5cc(F)cc(F)c5)cc34)c(NC3CCOCC3)c2)CC1 [Entrectinib]	92.9 ± 5.6
CC(C)(C)c1cnc(CSc2cnc(NC(=O)C3CCNCC3)s2)o1 [SNS032]	19.7 ± 0.32
Nc1ccn([C@@H]2O[C@H](CO)[C@@H](O)C2(F)F)c(=O)n1 [Gemcitabine]	28.3 ± 5
CCCS(=O)(=O)Nc1ccc(F)c(C(=O)c2c[nH]c3ncc(Cl)cc23)c1F [PLX4720]	98.4 ± 7.7
CC[C@H](Nc1ncnc2[nH]cnc12)c1nc2cccc(F)c2c(=O)n1-c1ccccc1 [CAL101]	88.6 ± 25
